Source: US10215751B2, “Carboxy X rhodamine analogs” (PROMEGA CORPORATION, priority 2011, dated 2019)

Target: T1, NanoLuc luciferase-PKC alpha fusion protein (Homo sapiens, UniProt P17252)
T1 construct: expressed in transfected cells; host or cells: HEK293 cells, transient transfection with pF5 plasmid
Assay: BRET negative control with cells expressing NanoLuc fused to an irrelevant kinase
Assay type: cell-based
Details: HEK293 cells expressing NanoLuc-PKCalpha (negative control)
Method: HEK293 cells (20,000 cells per well in 96-well format) were transiently transfected (Fugene HD, Promega Corporation) with pF5 plasmid DNA (Promega Corporation) encoding a NanoLuc® luciferase-p38alpha kinase fusion protein. As a negative control, some cells were transfected with a pF5 plasmids DNA encoding a NanoLuc luciferase-PKC alpha fusion protein. On the second day post transfection, the cell medium was replaced with serum-free Opti-MEM (Life Technologies) with or without 50 ug/ml digitonin. […] A furimazine substrate (PBI 3939), a substrate for the NanoLuc luciferase, then was added to cells to a final concentration of 20 uM. BRET ratios were recorded using a Varioskan luminometer at the following wavelengths: 630 nm (acceptor)/450 nm (donor). Acceptor/donor values were used to determine BRET ratio (FIGS. 21 and 22).

`Cc1ccc(-n2nc(C(C)(C)C)cc2NC(=O)Nc2ccc(OCCN3CCOCC3)c3ccccc23)cc1` [BIRB796, reference compound] was tested, and the “Effect of unlabeled BIRB796 on BRET signal with PBI 4838” value was “not affected”.
